Some test systems named below: CAKI-1; HCT-15; LOX IMVI; BT-549; OVCAR-3; Hs-578T; RXF 393; A549; EKVX; M14; SK-MEL-2; OVCAR-5; HCC 2998; SNB-75; U-251; PC-3; NCI-H460; HOP-92; MCF7.
Common to all, as to assay: inhibition of tumour cell growth, NCI panel, 48 h

Structures are written as SMILES.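 Growth conditions: 96-well plates. Treatment: test compound, 48 hours, 5 concentrations. Analysis: linear interpolation between bracketing concentrations; unreached endpoints set to highest concentration. Here, GI50 denotes the concentration required for 50% inhibition of growth.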 Active and inactive are the calls of the source. Cut-off read from the data, not from the text of the source: active = GI50 up to about 1.1 µM and inactive = higher.

With `C[C@H](N)C(=O)Nc1ccc(-c2nc3ccccc3s2)cc1Cl`, the GI50 with CAKI-1 is 10.7 µM (inactive); with HCT-15 it was 19.6 µM; in the test with LOX IMVI it was 7.82 µM (inactive); in the test on BT-549, 16.3 µM (inactive); with OVCAR-3, 0.153 µM (active); with Hs-578T, 20.1 µM (inactive). Moreover, the GI50 in the test with RXF 393 is 15.1 µM (inactive); with A549, 13.3 µM (inactive); in the test on EKVX, 11.9 µM (inactive); with M14, 5.78 µM (inactive); with SK-MEL-2, 15.7 µM (inactive); in the test on OVCAR-5, 0.27 µM (active). The GI50 in the test on HCC 2998 is 0.56 µM (active); in the test on SNB-75, 16 µM (inactive); with U-251, 14.6 µM (inactive); with PC-3 it was 13.8 µM (inactive); with NCI-H460, 0.916 µM (active); in the test on HOP-92, 33.1 µM (inactive).

Turning to `O=c1oc2ccccc2n1CCN1CCCCC1`, the GI50 in the test on CAKI-1 is > 100 µM (inactive); in the test with HCT-15, over 100 µM; in the test on LOX IMVI, > 100 µM (inactive); with BT-549, > 100 µM (inactive); in the test on OVCAR-3 it was > 100 µM (inactive); with Hs-578T it was > 100 µM (inactive). Moreover, the GI50 with RXF 393, in the test with EKVX, in the test with M14, in the test on SK-MEL-2, in the test on OVCAR-5 and with MCF7 was > 100 µM (inactive) each time. Also, the GI50 with SNB-75, in the test with U-251, with PC-3 and in the test with NCI-H460 was > 100 µM (inactive) each time.

Consider `C=C(C)[C@@]1(OC(=O)c2cc([N+](=O)[O-])cc([N+](=O)[O-])c2)C[C@@H]2CCCC[C@@H]21`, for which the GI50 with CAKI-1 is > 100 µM (inactive); with HCT-15, over 100 µM; in the test with LOX IMVI, > 100 µM (inactive); in the test with BT-549, > 100 µM (inactive); in the test on Hs-578T, > 100 µM (inactive); in the test on A549 it was 39.4 µM (inactive). Besides, the GI50 is 37.2 µM (inactive) with EKVX; 53.6 µM (inactive) in the test on M14; 58.3 µM (inactive) in the test on SK-MEL-2; > 100 µM (inactive) in the test with OVCAR-5; 59.6 µM (inactive) in the test on HCC 2998; 64 µM (inactive) in the test with MCF7. The GI50 was > 100 µM (inactive) with SNB-75, > 100 µM (inactive) in the test on U-251, > 100 µM (inactive) in the test with PC-3 and 46.9 µM (inactive) in the test on NCI-H460.

Turning to `CC[C@]12C=CCN3CCC4(c5cc(/N=N/c6ccc([N+](=O)[O-])cc6)c(OC)cc5N(C)[C@H]4[C@@](O)(C(=O)OC)[C@@H]1OC(C)=O)[C@@H]32` (some centres undefined), the GI50 is 12.9 µM (inactive) in the test with CAKI-1; 13.5 µM in the test with HCT-15; 16.3 µM (inactive) in the test on LOX IMVI; 72.4 µM (inactive) in the test with BT-549; 4.53 µM (inactive) with OVCAR-3; 18.4 µM (inactive) with Hs-578T. In addition, the GI50 with RXF 393 was 12.5 µM (inactive); in the test on A549 it was 15.3 µM (inactive); with EKVX, 9.86 µM (inactive); with M14 it was 15.5 µM (inactive); in the test with SK-MEL-2, 13 µM (inactive); in the test on OVCAR-5 it was 13 µM (inactive). The GI50 was 11.6 µM (inactive) in the test on MCF7; 9.48 µM (inactive) with SNB-75; 11.2 µM (inactive) with U-251; 4.26 µM (inactive) in the test on PC-3; 19.8 µM (inactive) in the test with NCI-H460; 2.54 µM (inactive) in the test on HOP-92.

For `ClCCN1CCC2(CC1)SSC1(CCN(CCCl)CC1)S2`, the GI50 in the test with CAKI-1 is 11.9 µM (inactive); with HCT-15, 36.2 µM; in the test on LOX IMVI, 31.8 µM (inactive); with BT-549, 35.8 µM (inactive); with OVCAR-3 it was 19.7 µM (inactive); in the test with Hs-578T, 45.1 µM (inactive). The GI50 in the test with A549 was 89.9 µM (inactive); in the test with M14, 61.4 µM (inactive); with SK-MEL-2 it was > 100 µM (inactive); with OVCAR-5 it was 29.6 µM (inactive); in the test on MCF7, 11.6 µM (inactive); with SNB-75 it was 59.3 µM (inactive). The GI50 in the test on U-251 was 42.1 µM (inactive); in the test with PC-3, 30.1 µM (inactive); in the test with NCI-H460, 29.3 µM (inactive); in the test on HOP-92 it was 1.79 µM (inactive).

In the case of `COc1cccc(N2C(=O)/C(=C\c3ccccc3)SC2c2cc(OC)c(OC)c(OC)c2)c1` (centres undefined), the GI50 in the test with CAKI-1 is 70 µM (inactive); with HCT-15 it was 44.3 µM; with LOX IMVI, 37.8 µM (inactive); in the test on BT-549, 47.9 µM (inactive); in the test with Hs-578T it was 30.4 µM (inactive); with A549 it was 64.1 µM (inactive). Also, the GI50 in the test on EKVX is 44.2 µM (inactive); with M14, 40.3 µM (inactive); with SK-MEL-2, 62.1 µM (inactive); with OVCAR-5, > 100 µM (inactive); with HCC 2998, 32.3 µM (inactive); in the test on MCF7, 42.4 µM (inactive). The GI50 in the test with SNB-75 is 18 µM (inactive); with U-251 it was 33.3 µM (inactive); with PC-3 it was 46.5 µM (inactive); in the test on HOP-92, 27.7 µM (inactive).

Consider `COc1ccc(C(NCCNC(c2ccc(OC)c(OC)c2)c2cc3c(cc2O)OCO3)c2cc3c(cc2O)OCO3)cc1OC` (centres undefined), for which the GI50 in the test on CAKI-1 is 2.64 µM (inactive); in the test on HCT-15, 1.85 µM; in the test on LOX IMVI, 1.8 µM (inactive); with BT-549, 2.12 µM (inactive); in the test with OVCAR-3 it was 2.65 µM (inactive); in the test with Hs-578T, 3.24 µM (inactive). Also, the GI50 with RXF 393 was 1.72 µM (inactive); in the test on A549 it was 12.2 µM (inactive); in the test on EKVX it was 6.22 µM (inactive); in the test on M14, 2.92 µM (inactive); with SK-MEL-2 it was 6.81 µM (inactive); in the test on OVCAR-5, 4.57 µM (inactive). The GI50 is 1.42 µM (inactive) in the test with MCF7; 3.56 µM (inactive) in the test with SNB-75; 2.87 µM (inactive) with U-251; 2.47 µM (inactive) in the test with PC-3; 4.35 µM (inactive) with NCI-H460; 6.71 µM (inactive) with HOP-92.

Take `COC(CN(C)C(=O)C(C)NC(=O)c1ccccc1)OC` (centres undefined): the GI50 in the test with CAKI-1 was > 100 µM (inactive); in the test on HCT-15 it was over 100 µM; with BT-549, > 100 µM (inactive); with Hs-578T, > 100 µM (inactive); in the test on RXF 393 it was > 100 µM (inactive); in the test on A549, > 100 µM (inactive). In addition, the GI50 in the test with EKVX, in the test with M14, in the test on SK-MEL-2, in the test on OVCAR-5, in the test with MCF7 and in the test on SNB-75 was > 100 µM (inactive) throughout. Also, the GI50 with U-251, with PC-3, in the test with NCI-H460 and with HOP-92 was > 100 µM (inactive) throughout.

As to `CCOc1cc(C2CC(c3ccc(NS(=O)(=O)c4cc([N+](=O)[O-])ccc4C)cc3)=NN2C(=O)c2ccccc2)ccc1O` (centres undefined), the GI50 is 24.7 µM (inactive) in the test with CAKI-1; 12.9 µM in the test on HCT-15; 26.9 µM (inactive) in the test with LOX IMVI; 20.1 µM (inactive) in the test with BT-549; 12 µM (inactive) with OVCAR-3; 16.8 µM (inactive) in the test with Hs-578T. For the same compound, the GI50 in the test with RXF 393 was 11.4 µM (inactive); with A549 it was 17.8 µM (inactive); in the test with EKVX, 18.7 µM (inactive); in the test with M14 it was 18.7 µM (inactive); in the test on SK-MEL-2 it was 13.7 µM (inactive); in the test on OVCAR-5 it was 36.6 µM (inactive). Also, the GI50 with MCF7 is 17.3 µM (inactive); with SNB-75, 14.1 µM (inactive); in the test on U-251, 18.7 µM (inactive); in the test on PC-3, 17.5 µM (inactive); with HOP-92 it was 14.8 µM (inactive).

With `COc1ccc(/C=C\c2cc(OC)c(OC)c(OC)c2)cc1OC(=O)CCC(=O)O`, the GI50 with CAKI-1 is 0.33 µM (active); with HCT-15, under 0.0001 µM; in the test on LOX IMVI it was < 0.0001 µM (active); in the test with BT-549 it was 25.8 µM (inactive); in the test on OVCAR-3, < 0.0001 µM (active); in the test with Hs-578T, < 0.01 µM (active). The GI50 was 0.000655 µM (active) in the test with A549; 0.0149 µM (active) in the test with EKVX; < 0.0001 µM (active) with M14; 0.0126 µM (active) in the test with SK-MEL-2; < 0.01 µM (active) in the test with MCF7; 43 µM (inactive) in the test with SNB-75. The GI50 in the test on U-251, in the test with PC-3 and with NCI-H460 was < 0.0001 µM (active) each time.

`C[N+](C)(N)CCC[N+](C)(C)N`: the GI50 with CAKI-1 is > 100 µM (inactive); with HCT-15 it was over 100 µM; in the test on LOX IMVI, > 100 µM (inactive); in the test on BT-549 it was > 100 µM (inactive); in the test on OVCAR-3, > 100 µM (inactive); with Hs-578T, > 100 µM (inactive). The GI50 in the test with RXF 393, in the test on A549, with EKVX, with M14, in the test on SK-MEL-2 and in the test with OVCAR-5 was > 100 µM (inactive) in each case. The GI50 with MCF7, with SNB-75, in the test with U-251, with PC-3, in the test on NCI-H460 and in the test on HOP-92 was > 100 µM (inactive) throughout.

Take `c1ccc([P+](CCNCCNCC[P+](c2ccccc2)(c2ccccc2)c2ccccc2)(c2ccccc2)c2ccccc2)cc1`: the GI50 with HCT-15 is over 100 µM; in the test on BT-549, > 100 µM (inactive); with OVCAR-3 it was > 100 µM (inactive); in the test with Hs-578T it was > 100 µM (inactive); in the test with RXF 393, > 100 µM (inactive); with A549 it was > 100 µM (inactive). Besides, the GI50 with EKVX, in the test on M14, in the test on SK-MEL-2, with OVCAR-5, in the test on HCC 2998 and in the test on MCF7 was > 100 µM (inactive) each time. For the same compound, the GI50 in the test with SNB-75, with U-251 and in the test on NCI-H460 was > 100 µM (inactive) throughout.

Values taken from ChEMBL document CHEMBL1201862, “PubChem BioAssay data set” (2004).
